Measured values reported in the NIST ThermoML archive (doi:10.1016/j.jct.2018.01.003).
± gives the expanded uncertainty stated by the source.

Test: activity coefficient (dimensionless); of the first substance listed, at infinite dilution; xn = mol fraction of the nth substance listed
Conditions: 101.33 kPa, Liquid, Chromatography, x1 = 0

Cc1ccccc1C [1,2-dimethylbenzene] + CCCCCCCCCCCCCC[P+](CCCCCC)(CCCCCC)CCCCCC.N#CC(=C=[N-])C#N
activity coefficient (328.15 K): 0.646 ± 0.044
activity coefficient (338.15 K): 0.677 ± 0.046
activity coefficient (348.15 K): 0.706 ± 0.047
activity coefficient (358.15 K): 0.734 ± 0.049
activity coefficient (368.15 K): 0.76 ± 0.05

Cc1cccc(C)c1 [1,3-dimethylbenzene] + CCCCCCCCCCCCCC[P+](CCCCCC)(CCCCCC)CCCCCC.N#CC(=C=[N-])C#N
activity coefficient (328.15 K): 0.713 ± 0.048
activity coefficient (338.15 K): 0.74 ± 0.049
activity coefficient (348.15 K): 0.77 ± 0.05
activity coefficient (358.15 K): 0.8 ± 0.052
activity coefficient (368.15 K): 0.826 ± 0.053

Cc1ccc(C)cc1 [1,4-dimethylbenzene] + CCCCCCCCCCCCCC[P+](CCCCCC)(CCCCCC)CCCCCC.N#CC(=C=[N-])C#N
activity coefficient (328.15 K): 0.71 ± 0.047
activity coefficient (338.15 K): 0.742 ± 0.049
activity coefficient (348.15 K): 0.773 ± 0.051
activity coefficient (358.15 K): 0.804 ± 0.052
activity coefficient (368.15 K): 0.83 ± 0.053

C1COCCO1 [1,4-dioxane] + CCCCCCCCCCCCCC[P+](CCCCCC)(CCCCCC)CCCCCC.N#CC(=C=[N-])C#N
activity coefficient (328.15 K): 0.578 ± 0.041
activity coefficient (338.15 K): 0.594 ± 0.042
activity coefficient (348.15 K): 0.608 ± 0.043
activity coefficient (358.15 K): 0.628 ± 0.043
activity coefficient (368.15 K): 0.642 ± 0.044

C=CCCCCCCCC [1-decene] + CCCCCCCCCCCCCC[P+](CCCCCC)(CCCCCC)CCCCCC.N#CC(=C=[N-])C#N
activity coefficient (328.15 K): 2.32 ± 0.16
activity coefficient (338.15 K): 2.37 ± 0.16
activity coefficient (348.15 K): 2.41 ± 0.16
activity coefficient (358.15 K): 2.45 ± 0.17
activity coefficient (368.15 K): 2.49 ± 0.17

C=CCCCCC [1-heptene] + CCCCCCCCCCCCCC[P+](CCCCCC)(CCCCCC)CCCCCC.N#CC(=C=[N-])C#N
activity coefficient (328.15 K): 1.56 ± 0.1
activity coefficient (338.15 K): 1.6 ± 0.11
activity coefficient (348.15 K): 1.64 ± 0.11
activity coefficient (358.15 K): 1.67 ± 0.11
activity coefficient (368.15 K): 1.7 ± 0.11

C#CCCCCC [1-heptyne] + CCCCCCCCCCCCCC[P+](CCCCCC)(CCCCCC)CCCCCC.N#CC(=C=[N-])C#N
activity coefficient (328.15 K): 0.938 ± 0.059
activity coefficient (338.15 K): 0.982 ± 0.062
activity coefficient (348.15 K): 1.03 ± 0.06
activity coefficient (358.15 K): 1.07 ± 0.07
activity coefficient (368.15 K): 1.11 ± 0.07

C#CCCCC [1-hexyne] + CCCCCCCCCCCCCC[P+](CCCCCC)(CCCCCC)CCCCCC.N#CC(=C=[N-])C#N
activity coefficient (328.15 K): 0.833 ± 0.054
activity coefficient (338.15 K): 0.875 ± 0.056
activity coefficient (348.15 K): 0.914 ± 0.058
activity coefficient (358.15 K): 0.952 ± 0.06
activity coefficient (368.15 K): 0.987 ± 0.062

CCC[N+](=O)[O-] [1-nitropropane] + CCCCCCCCCCCCCC[P+](CCCCCC)(CCCCCC)CCCCCC.N#CC(=C=[N-])C#N
activity coefficient (338.15 K): 0.557 ± 0.04
activity coefficient (348.15 K): 0.566 ± 0.041
activity coefficient (358.15 K): 0.577 ± 0.041
activity coefficient (368.15 K): 0.585 ± 0.041

C#CCCCCCC [1-octyne] + CCCCCCCCCCCCCC[P+](CCCCCC)(CCCCCC)CCCCCC.N#CC(=C=[N-])C#N
activity coefficient (328.15 K): 1.06 ± 0.07
activity coefficient (338.15 K): 1.11 ± 0.07
activity coefficient (348.15 K): 1.16 ± 0.07
activity coefficient (358.15 K): 1.21 ± 0.08
activity coefficient (368.15 K): 1.25 ± 0.08

C=CCCC [1-pentene] + CCCCCCCCCCCCCC[P+](CCCCCC)(CCCCCC)CCCCCC.N#CC(=C=[N-])C#N
activity coefficient (328.15 K): 1.25 ± 0.08
activity coefficient (338.15 K): 1.27 ± 0.08
activity coefficient (348.15 K): 1.3 ± 0.08
activity coefficient (358.15 K): 1.32 ± 0.09
activity coefficient (368.15 K): 1.34 ± 0.09

C#CCCC [1-pentyne] + CCCCCCCCCCCCCC[P+](CCCCCC)(CCCCCC)CCCCCC.N#CC(=C=[N-])C#N
activity coefficient (328.15 K): 0.76 ± 0.05
activity coefficient (338.15 K): 0.797 ± 0.052
activity coefficient (348.15 K): 0.832 ± 0.054
activity coefficient (358.15 K): 0.863 ± 0.055
activity coefficient (368.15 K): 0.893 ± 0.057

CC(C)CC(C)(C)C [2,2,4-trimethylpentane] + CCCCCCCCCCCCCC[P+](CCCCCC)(CCCCCC)CCCCCC.N#CC(=C=[N-])C#N
activity coefficient (328.15 K): 2.22 ± 0.15
activity coefficient (338.15 K): 2.25 ± 0.15
activity coefficient (348.15 K): 2.28 ± 0.16
activity coefficient (358.15 K): 2.31 ± 0.16
activity coefficient (368.15 K): 2.33 ± 0.16

CCC(C)(C)C [2,2-dimethylbutane] + CCCCCCCCCCCCCC[P+](CCCCCC)(CCCCCC)CCCCCC.N#CC(=C=[N-])C#N
activity coefficient (328.15 K): 1.85 ± 0.12
activity coefficient (338.15 K): 1.87 ± 0.13
activity coefficient (348.15 K): 1.89 ± 0.13
activity coefficient (358.15 K): 1.91 ± 0.13
activity coefficient (368.15 K): 1.93 ± 0.13

CCOC(C)(C)C [2-ethoxy-2-methylpropane] + CCCCCCCCCCCCCC[P+](CCCCCC)(CCCCCC)CCCCCC.N#CC(=C=[N-])C#N
activity coefficient (328.15 K): 1.4 ± 0.09
activity coefficient (338.15 K): 1.45 ± 0.1
activity coefficient (348.15 K): 1.48 ± 0.1
activity coefficient (358.15 K): 1.53 ± 0.1
activity coefficient (368.15 K): 1.56 ± 0.1

CCC(C)(C)OC [2-methoxy-2-methylbutane] + CCCCCCCCCCCCCC[P+](CCCCCC)(CCCCCC)CCCCCC.N#CC(=C=[N-])C#N
activity coefficient (328.15 K): 1.01 ± 0.06
activity coefficient (338.15 K): 1.06 ± 0.07
activity coefficient (348.15 K): 1.1 ± 0.07
activity coefficient (358.15 K): 1.14 ± 0.07
activity coefficient (368.15 K): 1.18 ± 0.08

COC(C)(C)C [2-methoxy-2-methylpropane] + CCCCCCCCCCCCCC[P+](CCCCCC)(CCCCCC)CCCCCC.N#CC(=C=[N-])C#N
activity coefficient (328.15 K): 0.946 ± 0.06
activity coefficient (338.15 K): 0.99 ± 0.062
activity coefficient (348.15 K): 1.02 ± 0.06
activity coefficient (358.15 K): 1.06 ± 0.07
activity coefficient (368.15 K): 1.1 ± 0.07

CC(C)CO [2-methyl-1-propanol] + CCCCCCCCCCCCCC[P+](CCCCCC)(CCCCCC)CCCCCC.N#CC(=C=[N-])C#N
activity coefficient (328.15 K): 0.412 ± 0.034
activity coefficient (338.15 K): 0.418 ± 0.035
activity coefficient (348.15 K): 0.423 ± 0.035
activity coefficient (358.15 K): 0.429 ± 0.035
activity coefficient (368.15 K): 0.434 ± 0.035

CC(C)(C)O [2-methylpropan-2-ol] + CCCCCCCCCCCCCC[P+](CCCCCC)(CCCCCC)CCCCCC.N#CC(=C=[N-])C#N
activity coefficient (328.15 K): 0.492 ± 0.037
activity coefficient (338.15 K): 0.503 ± 0.038
activity coefficient (348.15 K): 0.513 ± 0.038
activity coefficient (358.15 K): 0.526 ± 0.039
activity coefficient (368.15 K): 0.537 ± 0.039

CCC(C)CC [3-methylpentane] + CCCCCCCCCCCCCC[P+](CCCCCC)(CCCCCC)CCCCCC.N#CC(=C=[N-])C#N
activity coefficient (328.15 K): 1.69 ± 0.11
activity coefficient (338.15 K): 1.72 ± 0.12
activity coefficient (348.15 K): 1.75 ± 0.12
activity coefficient (358.15 K): 1.78 ± 0.12
activity coefficient (368.15 K): 1.8 ± 0.1

C=C(C)c1ccccc1 [(1-methylethenyl)benzene] + CCCCCCCCCCCCCC[P+](CCCCCC)(CCCCCC)CCCCCC.N#CC(=C=[N-])C#N
activity coefficient (338.15 K): 0.64 ± 0.044
activity coefficient (348.15 K): 0.678 ± 0.046
activity coefficient (358.15 K): 0.716 ± 0.048
activity coefficient (368.15 K): 0.751 ± 0.049

CC(C)=O [acetone] + CCCCCCCCCCCCCC[P+](CCCCCC)(CCCCCC)CCCCCC.N#CC(=C=[N-])C#N
activity coefficient (328.15 K): 0.454 ± 0.036
activity coefficient (338.15 K): 0.466 ± 0.036
activity coefficient (348.15 K): 0.477 ± 0.037
activity coefficient (358.15 K): 0.491 ± 0.037
activity coefficient (368.15 K): 0.503 ± 0.038

CC#N [acetonitrile] + CCCCCCCCCCCCCC[P+](CCCCCC)(CCCCCC)CCCCCC.N#CC(=C=[N-])C#N
activity coefficient (338.15 K): 0.668 ± 0.045
activity coefficient (348.15 K): 0.669 ± 0.045
activity coefficient (358.15 K): 0.671 ± 0.045
activity coefficient (368.15 K): 0.672 ± 0.046

c1ccccc1 [benzene] + CCCCCCCCCCCCCC[P+](CCCCCC)(CCCCCC)CCCCCC.N#CC(=C=[N-])C#N
activity coefficient (328.15 K): 0.459 ± 0.036
activity coefficient (338.15 K): 0.481 ± 0.037
activity coefficient (348.15 K): 0.5 ± 0.038
activity coefficient (358.15 K): 0.519 ± 0.039
activity coefficient (368.15 K): 0.536 ± 0.039

CCCCO [butan-1-ol] + CCCCCCCCCCCCCC[P+](CCCCCC)(CCCCCC)CCCCCC.N#CC(=C=[N-])C#N
activity coefficient (328.15 K): 0.424 ± 0.035
activity coefficient (338.15 K): 0.435 ± 0.035
activity coefficient (348.15 K): 0.445 ± 0.036
activity coefficient (358.15 K): 0.455 ± 0.036
activity coefficient (368.15 K): 0.464 ± 0.036

CCC(C)O (configuration not stated) [butan-2-ol] + CCCCCCCCCCCCCC[P+](CCCCCC)(CCCCCC)CCCCCC.N#CC(=C=[N-])C#N
activity coefficient (328.15 K): 0.457 ± 0.036
activity coefficient (338.15 K): 0.468 ± 0.037
activity coefficient (348.15 K): 0.476 ± 0.037
activity coefficient (358.15 K): 0.486 ± 0.037
activity coefficient (368.15 K): 0.495 ± 0.038
